Laboratory results reported in patent US10112968B2, “Inhibitors of protein methyltransferase DOT1L and methods of use thereof” (Epizyme, Inc., priority 2012, dated 2018).
“Also recorded” adds a separate entry of the source.

Key:
DOT1L [1] = biological target: T1, DOT1L (Homo sapiens (Human), UniProt Q8TEK3); assay: DOT1L enzymatic activity radiometric assay (methyl transfer from SAM to chicken erythrocyte nucleosomes); settings: for IC50: read-out: DOT1L IC50; for alpha: global fit
H3K79me2 in MV4-11 cells = assay: H3K79me2 quantitative ELISA; settings: Homo sapiens, MV4-11, 96 h, read-out: Cellular IC50 H3K79 Methylation
DOT1L [2] = biological target: T1, DOT1L; assay: Ligand association and dissociation rate constants by surface plasmon resonance (SPR); format: binding; settings: Kd calculated as koff/kon
[3] = tested on: HOXA9 mRNA in MV4-11 cells; assay: Quantitative real-time PCR analysis of HOXA9 message; settings: Homo sapiens, MV4-11, 144 h, read-out: Cellular IC50 HOXA9 mRNA
MV4-11 cells = assay: Cell proliferation assay (Guava Viacount, 14 days); format: cell-based; settings: Homo sapiens, 336 h, day 14, read-out: Cellular IC50 Proliferation
MLL-rearranged leukemia = assay: Aggressive, disseminated mouse model of MLL-rearranged leukemia; format: in vivo; settings: as previously described
H3K79 methylation = H3K79 methylation in treated leukemia cells; format: cell-based; settings: treatment of leukemia cells
[4] = tested on: MLL-rearranged leukemia cells; assay: Cell killing in MLL-rearranged leukemia cells; format: cell-based
[5] = tested on: other histone methyl marks; assay: Effect on other histone methyl marks in cells; format: cell-based
[6] = Pharmacokinetic half-life in systemic circulation, rats; format: in vivo
[7] = tested on: leukemia cell lines without the chromosomal rearrangement of the MLL gene; assay: Antiproliferative effect on leukemia cell lines without MLL rearrangement; format: cell-based
MV4-11 xenograft tumors = assay: MV4-11 nude rat subcutaneous xenograft model of MLL-rearranged leukemia; format: in vivo
Experimental: Four groups of 10 (Groups 1, 2, 3, and 4 female RH nu/nu rats (7 weeks old, weighing 120-160 g) bearing MV4-11 xenograft tumors of sizes ranging from 300-600 mm^3 were implanted with a catheter in the femoral vein). The infusion flow rate was set at 1,500 μL/hour/kg and was adjusted to the most recent mean body weight of each treatment group (as an example, the infusion flow rate was 300 μL/hour for a group of rats having a mean body weight of 200 g). Group 1 received vehicle via a 21-day continuous IV infusion. Group 2 received 21-day continuous IV infusion of the test substance at 35 mg/kg/day. Group 3 received a daily 8-hour continuous IV infusion of the test substance at 67 mg/kg/day for 21 consecutive days. Between two IV infusions of the test substance, the rats were kept under IV infusion with NaCl 0.9% solution. Group 4 received a 21-day continuous IV infusion of the test substance at 70 mg/kg/day. Syringes used for the IV infusion were replaced every day.
The rats were terminated when the subcutaneous tumor reached a maximum volume of 9,000 mm^3 or at a maximum of 55 days after tumor cells injection.

[8] = Pharmacokinetic half-life in systemic circulation, dogs; format: in vivo

T1 sequence (Q8TEK3 whole entry): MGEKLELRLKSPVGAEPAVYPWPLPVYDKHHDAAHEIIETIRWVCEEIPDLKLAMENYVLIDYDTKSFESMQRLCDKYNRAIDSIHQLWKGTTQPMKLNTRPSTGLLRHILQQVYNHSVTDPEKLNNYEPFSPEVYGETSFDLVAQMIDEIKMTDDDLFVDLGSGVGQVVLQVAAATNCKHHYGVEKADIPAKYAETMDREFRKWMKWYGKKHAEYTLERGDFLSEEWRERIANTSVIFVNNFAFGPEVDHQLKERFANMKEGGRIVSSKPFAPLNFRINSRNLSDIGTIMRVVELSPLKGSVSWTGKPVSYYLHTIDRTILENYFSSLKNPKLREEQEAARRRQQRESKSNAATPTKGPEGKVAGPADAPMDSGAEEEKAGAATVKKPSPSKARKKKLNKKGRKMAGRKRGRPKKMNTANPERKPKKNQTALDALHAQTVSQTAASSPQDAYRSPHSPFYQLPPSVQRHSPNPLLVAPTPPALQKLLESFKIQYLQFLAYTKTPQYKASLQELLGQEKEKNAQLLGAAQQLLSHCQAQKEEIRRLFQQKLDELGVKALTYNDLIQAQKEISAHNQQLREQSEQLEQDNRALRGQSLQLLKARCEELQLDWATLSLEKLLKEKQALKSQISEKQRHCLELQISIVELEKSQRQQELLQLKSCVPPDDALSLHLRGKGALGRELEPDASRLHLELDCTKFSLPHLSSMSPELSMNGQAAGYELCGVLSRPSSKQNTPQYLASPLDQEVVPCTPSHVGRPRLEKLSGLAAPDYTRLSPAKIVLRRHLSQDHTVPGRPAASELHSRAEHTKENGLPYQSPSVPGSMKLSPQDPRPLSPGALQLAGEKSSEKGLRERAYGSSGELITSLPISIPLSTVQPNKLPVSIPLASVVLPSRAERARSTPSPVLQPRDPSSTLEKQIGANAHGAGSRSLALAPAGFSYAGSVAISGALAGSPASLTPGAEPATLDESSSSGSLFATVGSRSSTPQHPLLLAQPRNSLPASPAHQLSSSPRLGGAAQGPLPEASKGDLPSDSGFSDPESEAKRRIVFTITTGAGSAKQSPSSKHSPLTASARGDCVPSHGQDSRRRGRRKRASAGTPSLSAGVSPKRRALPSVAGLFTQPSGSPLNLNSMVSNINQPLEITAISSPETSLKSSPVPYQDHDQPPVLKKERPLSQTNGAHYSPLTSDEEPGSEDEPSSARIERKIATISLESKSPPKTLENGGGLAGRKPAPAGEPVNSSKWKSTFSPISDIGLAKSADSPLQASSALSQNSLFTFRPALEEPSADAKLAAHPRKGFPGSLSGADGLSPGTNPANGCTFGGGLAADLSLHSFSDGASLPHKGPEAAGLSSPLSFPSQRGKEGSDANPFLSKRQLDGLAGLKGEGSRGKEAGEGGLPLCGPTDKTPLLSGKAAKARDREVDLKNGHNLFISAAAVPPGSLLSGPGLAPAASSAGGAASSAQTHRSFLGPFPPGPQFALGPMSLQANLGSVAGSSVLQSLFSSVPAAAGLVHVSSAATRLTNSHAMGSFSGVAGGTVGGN

Structure (SMILES): CN(CCNC(=O)OCC1c2ccccc2-c2ccccc21)C[C@H]1OC(n2cnc3c(N)ncnc32)[C@H](O)[C@@H]1O (some centres unmarked) [Compound C64]
- Ki (DOT1L [1]): 20000 nM

Structure (SMILES): CN(C[C@H]1O[C@@H](n2ccc3c(N)ncnc32)[C@H](O)[C@@H]1O)[C@H]1C[C@@H](CCc2nc3cc(C(C)(C)C)ccc3[nH]2)C1 [Compound A86, (2R,3R,4S,5R)-2-(4-amino-7H-pyrrolo[2,3-d]pyrimidin-7-yl)-5-((((1r,3S)-3-(2-(5-(tert-butyl)-1H-benzo[d]imidazol-2-yl)ethyl)cyclobutyl)(methyl)amino)methyl)tetrahydrofuran-3,4-diol]
- IC50 (DOT1L [1]): 0.62 nM

Structure (SMILES): CN(CCNC(=O)Nc1ccc(C(C)(C)C)cc1)C[C@H]1O[C@@H](n2cnc3c(N)ncnc32)[C@H](O)[C@@H]1O [Compound C94]
- IC50 (H3K79me2 in MV4-11 cells): 28000 ± 25000 nM
- Kd (DOT1L [2]): 167 ± 100 nM
- IC50 [3]: > 50000 nM
- IC50 (MV4-11 cells): > 50000 nM
- Ki (DOT1L [1]): 845 nM

Structure (SMILES): CC(C)N(CCCNC(=O)Nc1ccc(C(C)(C)C)cc1)C[C@H]1OC(n2ccc3c(N)ncnc32)C(O)[C@@H]1O (some centres unmarked) [Compound D16]
- IC50 (H3K79me2 in MV4-11 cells): 5 ± 3 nM
- survival (MLL-rearranged leukemia): statistically significant survival advantage
- IC50 [3]: 830 ± 170 nM
- IC50 (MV4-11 cells): 146 ± 72 nM
- inhibition modality with respect to SAM (DOT1L [1]): competitive inhibitor
- inhibition modality with respect to nucleosome (DOT1L [1]): noncompetitive inhibitor
- alpha (DOT1L [1]; FIG. 2A, varied SAM concentration): 10±6
- alpha (DOT1L [1]; FIG. 2B, varied oligonucleosome concentration): 0.5±0.2
- ΔΔGbinding (DOT1L [1]; between C118 and D16, at 25° C.): 2.4 to 2.9 kcal/mol

Structure (SMILES): CC(C)N(C[C@H]1O[C@@H](n2ccc3c(N)ncnc32)[C@H](O)[C@@H]1O)[C@H]1C[C@H](CCc2nc3cc(C(C)(C)C)ccc3[nH]2)C1 [Compound A75, (2R,3R,4S,5R)-2-(4-amino-7H-pyrrolo[2,3-d]pyrimidin-7-yl)-5-((((1s,3R)-3-(2-(5-(tert-butyl)-1H-benzo[d]imidazol-2-yl)ethyl)cyclobutyl)(isopropyl)amino)methyl)tetrahydrofuran-3,4-diol]
- IC50 (DOT1L [1]): 0.59 nM

Structure (SMILES): CC(C)N(C[C@H]1O[C@@H](n2cnc3c(N)ncnc32)[C@H](O)[C@@H]1O)[C@H]1C[C@@H](CCc2nc3cc(Cl)c(C(F)(F)F)cc3[nH]2)C1 [Compound A5, (2R,3R,4S,5R)-2-(6-amino-9H-purin-9-yl)-5-((((1r,3S)-3-(2-(5-chloro-6-(trifluoromethyl)-1H-benzo[d]imidazol-2-yl)ethyl)cyclobutyl)(isopropyl)amino)methyl)tetrahydrofuran-3,4-diol]
- IC50 (DOT1L [1]): 0.59 nM

Structure (SMILES): CC(C)N(C[C@H]1O[C@@H](n2cnc3c(N)ncnc32)[C@H](O)[C@@H]1O)[C@H]1C[C@@H](CCc2nc3cc(C(C)(C)C)ccc3[nH]2)C1 [Compound A2, (2R,3R,4S,5R)-2-(6-amino-9H-purin-9-yl)-5-((((1r,3S)-3-(2-(5-(tert-butyl)-1H-benzo[d]imidazol-2-yl)ethyl)cyclobutyl)(isopropyl)amino)methyl)tetrahydrofuran-3,4-diol]
- H3K79 methylation (H3K79 methylation): concentration- and time-dependent diminution
- cell killing [4]: selective, apoptotic cell killing
- effect on other histone methyl marks / methylation status of other histone sites [5]: without effect
- effective pharmacokinetic half-life in systemic circulation [6]: 15 min
- impact on non-rearranged cells [7]: minimal impact
- anti-tumor activity (MV4-11 xenograft tumors; continuous intravenous infusion for 21 days, FIG. 1): dose-dependent anti-tumor activity; also recorded: complete and sustained tumor regression
- time with no regrowth after the cessation of treatment (MV4-11 xenograft tumors; highest dose (70 mg/kg/day)): up to 32 days
- tumor regressions (MV4-11 xenograft tumors; highest dose (70 mg/kg/day), 21-day continuous IV infusion): complete tumor regressions
- weight loss or toxicity during efficacy study (MV4-11 xenograft tumors; rats): No significant weight loss or obvious toxicity
- effective pharmacokinetic half-life in systemic circulation [8]: 90 min

Structure (SMILES): CC(C)N(C[C@H]1O[C@@H](n2ccc3c(N)ncnc32)[C@H](O)[C@@H]1O)[C@H]1C[C@@H](CCc2nc3cc(OC(F)(F)F)ccc3[nH]2)C1 [Compound A87, (2R,3R,4S,5R)-2-(4-amino-7H-pyrrolo[2,3-d]pyrimidin-7-yl)-5-((isopropyl((1r,3S)-3-(2-(5-(trifluoromethoxy)-1H-benzo[d]imidazol-2-yl)ethyl)cyclobutyl)amino)methyl)tetrahydrofuran-3,4-diol]
- IC50 (DOT1L [1]): 0.8 nM
